Laboratory results taken from ChEMBL document CHEMBL1221197, “Selective inhibitors of death in mutant huntingtin cells” (Nat Chem Biol, 2007).
Activity calls are given as the source filed them. No cut-off for these calls is given here.

How the values were obtained:
[1] = tested on: Saccharomyces cerevisiae; experiment: Inhibition of huntingtin in Saccharomyces cerevisiae coexpressing exon 1 fragments with polyQ region Huntington disease (HD) model assessed as increase in cell viability
[2] = tested on: neuronal; experiment: Inhibition of huntingtin mutant in Caenorhabditis elegans ASH neuronal cell Huntington disease model assessed as cell viability; assay type: cell-based
[3] = Inhibition of human huntingtin Q103 mutant expressed in rat PC12 cells assessed as decrease in cell death; assay type: cell-based, PC-12
[4] = Cytotoxicity against rat ST14A cells transfected with human htt gene; assay type: cell-based; details: read-out: TC50 (the source's name)
[5] = tested on: PC-12; experiment: Inhibition of human huntingtin Q103 mutant expressed in rat PC12 cells assessed as decrease in cell death relative to control; assay type: cell-based; parameters: concentration or dose not given beside the values
[6] = Inhibition of human huntingtin N548 mutant expressed in rat ST14A cells assessed as decrease in cell death; assay type: cell-based
[7] = tested on: Brain; experiment: Inhibition of medium spiny neuron degeneration in rat brain slice Huntington disease (HD) model after 4 days; assay type: functional, tissue-based
[8] = tested on: ST14A; experiment: Inhibition of apoptosis in rat ST14A cells transfected with human htt gene assessed as inhibition of caspase 7 cleavage by Western blot method; assay type: functional, cell-based
[9] = tested on: ST14A; experiment: Inhibition of apoptosis in rat ST14A cells transfected with human htt gene assessed as inhibition of caspase 3 cleavage by Western blot method; assay type: functional, cell-based
[10] = tested on: ST14A; experiment: Inhibition of cell death in rat ST14A cells assessed as cell viability; assay type: functional, cell-based
[11] = tested on: ST14A; experiment: Inhibition of rat ST14A cell death expressing human huntingtin N548 mutant assessed as inhibition of cell death at 50 uM after 6 hrs by fluorimetry; assay type: functional, cell-based
[12] = tested on: ST14A; experiment: Inhibition of rat ST14A cell death assessed as inhibition of cell death at 50 uM after 6 hrs by fluorimetry; assay type: functional, cell-based

Row | SMILES | inhibition [1] | inhibition [2] | EC50 ([3]; PC-12, read-out: EC50) | CC50 [4] | inhibition [5] | EC50 [6] | INH [2] | inhibition [7] | inhibition [8] | inhibition [9] | inhibition [10] | EC50 ([3]; pc-12) | inhibition [11] | inhibition [12]
1 | CCCCCCCCC(=O)N(Cc1ccco1)C(C)c1nc2ccccc2c(=O)n1-c1cc(C)ccc1C (stereo not drawn) | inactive | inactive | 50 µM | 39 µM | 25% | 2 µM |  |  |  |  |  |  |  | 
2 | CCCc1cc(OC(=O)c2ccccc2F)n(-c2cccc(F)c2)n1 | inactive |  | 145 µM | 235 µM | 21% | 12 µM | 3 mM | Active | inactive | Active | inactive |  |  | 
3 | CCCCCCN(C(=O)CCCC)C(C)c1nc2ccccc2c(=O)n1-c1ccccc1OC (stereo not drawn) | inactive | inactive |  | 26 µM |  | 9 µM |  |  |  |  |  | Not Active |  | 
4 | CC1=NC(Nc2nc(C)c3cc(C)c(C)cc3n2)=NC(C)(C)C1 | inactive | inactive |  | 32 µM |  | 7 µM |  |  |  |  |  | Not Active |  | 
5 | COc1ccccc1C(CCN(C(C)=O)C(C)c1ccccc1)C1CCC(C)(C)OC1 (stereo not drawn) | inactive | inactive |  | 47 µM |  | 5 µM |  |  |  |  |  | Not Active |  | 
6 | Oc1ccc2c(c1)CC1NCCc3cc(O)c(O)c-2c31 (stereo not drawn) | inactive | inactive |  | 74 µM |  | 15 µM |  |  |  |  |  | Not Active |  | 
7 | COC(=O)C[C@H](NC(=O)OC(C)(C)C)C(=O)CF |  |  |  |  |  |  |  |  |  |  |  |  | Dose-dependent effect | Dose-dependent effect
8 | CCCN1C(=O)C(=O)c2cc(C)ccc21 | inactive | inactive |  | 98 µM |  | 5 µM |  |  |  |  |  | Not Active |  | 
9 | COC1=CC2C(=O)C(=O)N3C2C(=C1)[C@H](C)CC3(C)C (stereo partly drawn) | inactive | inactive |  | 77 µM |  | 16 µM |  |  |  |  |  | Not Active |  | 
10 | CCCCc1ccc(C(=O)N(CCC(=O)N2CCC(Cc3ccccc3)CC2)Cc2ccco2)cc1 | inactive | inactive | 60 µM | 41 µM | 27% | 5 µM |  |  |  |  |  |  |  | 
11 | CC1=NN(C(N)=S)C(=O)/C1=N/Nc1ccccc1C(F)(F)F | inactive | inactive |  | 49 µM |  | 7 µM |  |  |  |  |  | Not Active |  | 
12 | CCCCCCCCCC(=O)Oc1cc(-c2ccccc2)nn1-c1cccc(C)c1 | inactive | inactive | 100 µM | 75 µM | 23% | 10 µM |  | inactive |  |  |  |  |  | 
13 | O=C(Cc1cccs1)/C(=N/NC(=O)c1cccc(Br)c1)C(F)(F)F | inactive | inactive |  | 48 µM |  | 5 µM |  |  |  |  | inactive | Not Active |  | 
14 | CC(C)C1=CCC2C(=C1)CCC1[C@@]2(C)CCC[C@]1(C)C(=O)O (stereo partly drawn) | inactive | inactive |  | 53 µM |  | 7 µM |  |  |  |  |  | Not Active |  | 
15 | COc1ccc(CN(CCC2(c3ccccc3)CCOC(C)(C)C2)C(=O)c2ccco2)cc1OC (stereo not drawn) | inactive | inactive |  | 50 µM |  | 5 µM |  |  |  |  |  | Not Active |  | 
16 | COc1cc2c(cc1OC)C(C)N(C(=O)NCc1ccccc1)CC2 (stereo not drawn) | inactive | inactive |  | 47 µM |  | 3 µM |  |  |  |  |  | Not Active |  | 
17 | CCCc1cc(OC(=O)C(CC)c2ccccc2)n(-c2cccc(F)c2)n1 (stereo not drawn) | inactive | inactive |  | 218 µM |  | 11 µM |  | Active |  |  |  | Not Active |  | 
18 | COc1ccc(C(CCN(CC2CCOC(C)(C)C2)C(C)=O)c2ccccc2)cc1 (stereo not drawn) | inactive | inactive |  | 49 µM |  | 10 µM |  |  |  |  |  | Not Active |  | 
19 | CCCc1ccc(CC2=C(O)C(=O)c3ccccc3C2=O)cc1 | inactive | inactive |  | 65 µM |  | 7 µM |  |  |  |  |  | Not Active |  | 
20 | O=c1[nH]c2c(c(=O)[nH]1)C(c1cccc([N+](=O)[O-])c1)C=C(c1ccccc1)O2 (stereo not drawn) | inactive | inactive |  | 110 µM |  | 3 µM |  |  |  |  |  | Not Active |  | 
21 | COc1c2c(cc3c1C(CC(=O)/C=C/c1ccco1)[N+](C)(C)CC3)OCO2 (stereo not drawn) | inactive |  | 22 µM | 80 µM | 34% | 9 µM | 2.2 mM | inactive | inactive | Active |  |  |  | 
22 | Cc1nc2c(O)c(Br)ccn2c(=O)c1Br | inactive | inactive |  | 24 µM |  | 2 µM |  |  |  |  |  | Not Active |  | 
23 | CC1(C)C(C=C(Cl)Cl)C1C(=O)C1=C(O)CCCC1=O (stereo not drawn) | inactive | inactive |  | 79 µM |  | 10 µM |  |  |  |  |  | Not Active |  | 
24 | CCC1CN2CCc3cc(OC)c(OC)cc3C2CC1CC1c2cc(OC)c(OC)cc2CCN1C(=O)c1ccco1 (stereo not drawn) | inactive | inactive |  | 42 µM |  | 6 µM |  |  |  |  |  | Not Active |  | 
25 | CC(C)CC(NC(=O)OCc1ccccc1)C(=O)Oc1ccc2c(=O)c(-c3ccc([N+](=O)[O-])cc3)coc2c1 (stereo not drawn) | inactive | inactive |  | 38 µM |  | 8 µM |  |  |  |  |  | Not Active |  | 
26 | CC1CN(C(C)c2nc3ccccc3c(=O)n2-c2ccc(F)cc2)CCC1C(=O)C1CC1 (stereo not drawn) | inactive | inactive |  | 37 µM |  | 5 µM |  |  |  |  |  | Not Active |  | 
27 | NNc1nnc(-c2ccccc2)c2ccccc12 | inactive | inactive | 8 µM | 102 µM | 18% | 5 µM |  |  |  |  |  |  |  | 
28 | Cc1ccc(-c2nc(NS(=O)(=O)c3ccc(Cl)cc3)sc2C)cc1 | inactive | inactive |  | 42 µM |  | 11 µM |  |  |  |  |  | Not Active |  | 
29 | CCOC(=O)c1cccc(NS(=O)(=O)c2ccc(OC)cc2)c1 | inactive | inactive |  | 119 µM |  | 15 µM |  |  |  |  |  | Not Active |  | 
30 | CC(=O)N(C1=C(N(C)C)C(=O)c2ccccc2C1=O)c1ccc(Br)cc1 | inactive | inactive |  | 29 µM |  | 5 µM |  |  |  |  |  | Not Active |  | 
